Data on 65 compounds can be found in the SangsterLogP compilation.

In general, logP refers to the decadic logarithm of the partition coefficient of the neutral form, usually between octanol and water. As usually defined, the logD is lipophilicity at a set pH, counting ionised and neutral species. Read a low logD as a more hydrophilic compound.

Experiment in data set [1]: not given
This is another data set of the same source.

The compound `OCCC1CCN(CC/C=C2\c3ccc(F)cc3Sc3ccc(C(F)(F)F)cc32)CC1` yielded a lipophilicity (logP) of 4.09.

For `C#CCNS(=O)(=O)c1ccc(OC)c(C(=O)NCC2CCCN2CC)c1` (stereo not given), the lipophilicity (logP) came to 2.42. Still for that read-out and setting: the same measure for `CSc1ccc2c(c1)C(N1CCN(CCO)CC1)CC2c1ccc(F)cc1` (stereo not given): 3.8; for `CCc1c(C)[nH]c2c1C(=O)C1CN(C)CCC1C2` (stereo not given): 1.78.

With `CC(C)Cn1c(=O)n(C)c(=O)c2[nH]c(CC(O)N3CCN(C(c4ccccc4)c4ccccc4)CC3)nc21` (stereo not given), the logD in data set [1] (pH 7.4) amounted to 5.21. Take `Fc1cc(F)c(F)c(F)c1F`: the lipophilicity (logP) in data set [1] stood at 2.53. Still for that read-out and setting: the same measure for `Cc1nc(N(C)C)nc(OC(=O)N(C)C)c1C`: 1.7; for `NNP(=O)(Oc1ccccc1)Oc1ccccc1`: 1.51.

On to `CN(C)C1=CC(=O)C(N(C)C)=CC1=O`, for which the lipophilicity (logP) in data set [1] stood at 1.03.

For `CCOC(=O)CCCOc1ccc(Cl)cc1C`, in data set [1], the lipophilicity (logP) turned out to be 4.26.

In the case of `Cn1c([N+](=O)[O-])cnc1-c1ccc(N)cc1`, the logD in data set [1] (pH 7.4) is 1.06. `c1ccc(C2CN3CCSC3=N2)cc1` (stereo not given) came in with a logD in data set [1] (pH 9.8) of 1.84. Turning to `Clc1cc(Cl)c2c(Cl)ccc(Cl)c2c1`, the logP in data set [1] was found to be 5.76. For the compound `CCNCCNCC`, the log distribution coefficient (logD) in data set [1] (pH 13.0) turned out to be 0.21.

`COC(=O)c1ccc(-c2ncc([N+](=O)[O-])n2C)cc1`: the pH-dependent lipophilicity (logD) in data set [1] (pH 7.4) was 1.63. For the compound `Cn1ccnc1`, the pH-dependent lipophilicity (logD) in data set [1] (pH 8.4) is -0.06. Compound `COCC(C)OC` (stereo not given) gave a log partition coefficient (logP) in data set [1] of -0.09. Regarding `CC12CC(O)C3C(CCC4(O)CC(O)CC(O)C34CO)C1(O)CCC2C1=CC(=O)OC1` (stereo not given), in data set [1], the logP was -0.02. Same read-out and setting: the same measure for `CON=C(Cc1cccnc1)c1ccc(Cl)cc1Cl`: 2.51.

For `CCOC(=S)NCCn1c([N+](=O)[O-])cnc1C`, in data set [1] (pH 7.4), the logD was determined as 1.5. On to `N=C(N)c1ccc(N)cc1`, for which the pH-dependent lipophilicity (logD) in data set [1] (pH 13.0) is -0.49. `Cc1ccc(O)c(-n2nc3ccccc3n2)c1` had a lipophilicity (logP) in data set [1] of 4.31. With `CC(=O)Nc1cccc2cccnc12`, the pH-dependent lipophilicity (logD) in data set [1] (pH 7.4) was 1.91. `CCC1COC(Cn2cncn2)(c2ccc(-n3cncn3)cc2Cl)O1` (stereo not given): the logD in data set [1] (pH 7.0) was 1.28.

In data set [1], `CCNC(=O)c1ccoc1` yielded a log partition coefficient (logP) of 0.72. Still for that read-out and setting: under `O=CN1CCCC1` stands -0.32. `CC1=C(C(=O)O)N2C(=O)C(NC(=O)C(O)c3ccccc3)C2SC1` (stereo not given): in data set [1] (pH 3.5), the logD came out at 0.46.

For `Ic1ccc(I)cc1`, in data set [1], the logP stood at 4.11. Same read-out and setting: under `CNC(=S)N(C)C` stands 0.1; under `CS(=O)(=O)N1C(=O)c2ccc(N)cc2C1=O`, 0.8. Compound `NCCN1CCCC1` gave a logD in data set [1] (pH 13.0) of 0.08. In data set [1] (pH 7.4), `Cn1c([N+](=O)[O-])cnc1C=NNC(N)=S` registered a logD of 0.65. For `Nc1ccc2c(c1)C(=O)N(O)C2=O`, the logP in data set [1] came to 0.16. The compound `CC1=C(/C=C/C(C)=C/C=C/C(C)=C/CO)C(C)(C)CCC1` displayed a logP in data set [1] of 5.68. The compound `O=C(O)c1c(Cl)cccc1Cl` gave a log distribution coefficient (logD) in data set [1] (pH 1.0) of 2.23. In data set [1], `CN(C)N=Nc1nccs1` came in with a logP of 1.27. On the same count and under the same terms, the same measure for `CCC(C)(C)Cl`: 2.52; for `CCN(CC)S(=O)(=O)c1ccc(OC)c(N)c1`: 1.7. Compound `O=C(O)CCCOc1ccc(Cl)cc1Cl` gave a logD in data set [1] (pH 1.0) of 3.53. `CN1CCN(C)CC1`: in data set [1] (pH 13.0), the logD is -0.4. `O=C(OCCc1ccccc1)c1ccccc1` displayed a lipophilicity (logP) in data set [1] of 4.01. Same read-out and setting: under `CC(C(=O)O)c1ccc(N2C(=O)C3C4C=CCC3(C4)C2=O)cc1` (stereo not given) stands 2.31; under `O=[N+]([O-])c1ccco1`, 0.66. With `Nc1nc(=O)cc[nH]1`, the lipophilicity (logP) in data set [1] was -0.99. The same measure, in the same setting: the same measure for `C=C(C)CN(CC)c1c([N+](=O)[O-])cc(C(F)(F)F)cc1[N+](=O)[O-]`: 5.11. Same read-out and setting: the same measure for `CC(C)C(C#N)Cc1ccc(Cl)cc1` (stereo not given): 3.41. On the same count and under the same terms, under `CCS(=O)(=O)CC` stands -0.59; under `CCCSP(=S)(OCC)Oc1ccc(Cl)cc1Cl` (stereo not given), 4.92; under `Clc1cc(Cl)nc(-c2ccccc2)n1`, 4.17. For the compound `Oc1ccc(C(F)(F)F)cc1`, the logP in data set [1] is 2.82. Regarding `CC1C=CCN1` (stereo not given), the lipophilicity (logP) in data set [1] came out at 1.87. On the same count and under the same terms, the same measure for `COC(=O)C1=CCCN(C)C1`: 0.35; for `c1ccc(COCc2ccccc2)cc1`: 3.31. The same measure, in the same setting: under `FC(F)(F)CCc1ccccc1` stands 3.31. Same read-out and setting: under `C[C@H](C(=O)O)c1ccc(N2Cc3ccccc3C2=O)cc1` stands 2.89; under `O=S1(=O)OCC2C(CO1)C1(Cl)C(Cl)=C(Cl)C2(Cl)C1(Cl)Cl` (stereo not given), 3.66.

Turning to `CSCCC(NC(C)=O)C(N)=O` (stereo not given), in data set [1] (pH 7.1), the log distribution coefficient (logD) is -0.6. `Cn1cc(-c2ccccc2)c(=O)c(-c2cccc(C(F)(F)F)c2)c1` came in with a logD in data set [1] (pH 7.4) of 3.16. In data set [1], `C=CCC` gave a logP of 2.4. Still for that read-out and setting: under `CN1CCCC1=O` stands -0.54. For `C#CCn1ncc2cc([N+](=O)[O-])ccc21`, the pH-dependent lipophilicity (logD) in data set [1] (pH 7.4) came to 0.52.

With `CC(=NNc1ccc([N+](=O)[O-])cc1[N+](=O)[O-])C(F)(F)F`, the pH-dependent lipophilicity (logD) in data set [1] (pH 4.0) amounted to 3.3. As for `Nc1nc2c(ncn2[C@@H]2O[C@H](CO)[C@@H](O)[C@@H]2F)c(=O)[nH]1`, the pH-dependent lipophilicity (logD) in data set [1] (pH 7.0) was -1.18. Consider `CCOC(=O)C(Cl)(Cl)Cl`, for which the logP in data set [1] was found to be 2.39.

In data set [1], `CN(C)c1cccnc1` gave a log partition coefficient (logP) of 1.41.
